Results: ChEMBL document CHEMBL1152752, “Chemical components and its antioxidant properties in vitro: an edible marine brown alga, Ecklonia cava” (Bioorg Med Chem, 2009)
Active and inactive are the calls of the source. No cut-off for these calls is given here.

Columns and labels:
[1] = Antioxidant activity assessed as Fenton system generated hydroxyl radical scavenging activity by ESR spectrometer; type: functional
[2] = system: Radical scavenging activity; test: Antioxidant activity assessed as DPPH radical scavenging activity; type: functional
[3] = Antioxidant activity assessed as superoxide radical scavenging activity; type: functional
[4] = Antioxidant activity assessed as […] generated peroxyl radical scavenging formation by ESR spectrometer; type: functional
MRC5 = test: Cytotoxicity against human MRC5 cells at 100 uM after 24 hrs by MTT assay; type: cell-based; conditions: mrc5, 24 h
RAW264.7 [5] = test: Cytotoxicity against mouse RAW264.7 cells at 100 uM after 24 hrs by MTT assay; type: functional, cell-based
HL-60 = test: Cytotoxicity against human HL60 cells at 100 uM after 24 hrs by MTT assay; type: functional, cell-based
RAW264.7 [6] = test: Antioxidant activity against mouse RAW264.7 cells assessed as reduction of ROS production measured by fluorescent dichlorofluorescein using DCFH-DA substrate; type: functional, cell-based
RAW264.7 [7] = test: Antioxidant activity against mouse RAW264.7 cells assessed as reduction of ROS production after 200 mins measured by fluorescent dichlorofluorescein using DCFH-DA substrate; type: functional, cell-based; conditions: TDE = time-dependent effect
RAW264.7 [8] = test: Inhibition of Fe(2+)/H2O2-generated hydroxyl radical induced membrane protein oxidation in mouse RAW264.7 cells at 1 uM to 50 uM relative to control; type: functional
RAW264.7 [9] = test: Antioxidant activity against mouse RAW264.7 cells assessed as reduction of ROS production at 1 uM after 200 mins measured by fluorescent dichlorofluorescein using DCFH-DA substrate; type: functional, cell-based
RAW264.7 [10] = test: Antioxidant activity against mouse RAW264.7 cells assessed as reduction of ROS production at 50 uM after 200 mins measured by fluorescent dichlorofluorescein using DCFH-DA substrate; type: functional, cell-based
RAW264.7 [11] = test: Antioxidant activity against mouse RAW264.7 cells assessed as reduction of ROS production at 50 uM after 210 mins measured by fluorescent dichlorofluorescein using DCFH-DA substrate; type: functional; parameters: scale not given: the % may be the effect or the level left
RAW264.7 [12] = test: Increase in intracellular GSH level in mouse RAW264.7 cells assessed as monobromobimane-GSH fluorescence intensity at 20 uM after 120 mins; type: functional, cell-based
[13] = target: T1, Myeloperoxidase (Homo sapiens) (UniProt P05164); test: Inhibition of MPO activity in TNF-alpha-stimulated human HL60 cells measured enzyme activity per 10^6 cells by spectrophotometrically; type: cell-based; conditions: HL-60
T1 sequence (whole entry): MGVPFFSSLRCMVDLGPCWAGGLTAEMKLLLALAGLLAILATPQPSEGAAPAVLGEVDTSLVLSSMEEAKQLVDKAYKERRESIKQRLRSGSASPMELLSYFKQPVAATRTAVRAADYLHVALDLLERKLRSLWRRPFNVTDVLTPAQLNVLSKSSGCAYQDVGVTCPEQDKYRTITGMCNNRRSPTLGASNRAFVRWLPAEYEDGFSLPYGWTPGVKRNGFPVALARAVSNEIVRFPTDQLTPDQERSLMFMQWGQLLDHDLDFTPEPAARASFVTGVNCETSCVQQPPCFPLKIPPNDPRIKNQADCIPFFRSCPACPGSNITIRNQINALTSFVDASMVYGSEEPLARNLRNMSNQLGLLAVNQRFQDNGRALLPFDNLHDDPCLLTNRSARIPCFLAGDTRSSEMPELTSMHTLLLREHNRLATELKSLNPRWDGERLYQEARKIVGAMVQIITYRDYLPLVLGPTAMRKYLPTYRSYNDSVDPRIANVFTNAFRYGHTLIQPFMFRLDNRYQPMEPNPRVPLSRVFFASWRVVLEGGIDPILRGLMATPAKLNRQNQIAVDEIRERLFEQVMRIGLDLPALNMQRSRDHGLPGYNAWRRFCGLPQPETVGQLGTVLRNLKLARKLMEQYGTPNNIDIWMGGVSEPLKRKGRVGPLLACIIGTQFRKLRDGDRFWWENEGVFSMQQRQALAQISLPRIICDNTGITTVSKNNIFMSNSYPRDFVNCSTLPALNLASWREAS

[14] = target: T1, Myeloperoxidase (Homo sapiens); test: Inhibition of MPO activity in TNF-alpha-stimulated human HL60 cells measured enzyme activity per 10^6 cells at 10 uM by spectrophotometrically; type: cell-based; conditions: HL-60
[15] = target: T1, Myeloperoxidase (Homo sapiens); test: Inhibition of MPO activity in TNF-alpha-stimulated human HL60 cells measured enzyme activity per 10^6 cells at 50 uM by spectrophotometrically; type: cell-based; conditions: HL-60

Row | SMILES | IC50 [1] [µM] | IC50 [2] [µM] | IC50 [3] [µM] | IC50 [4] [µM] | Activity [13] | Activity [14] [IU] | Activity [15] [IU] | Activity (MRC5) | Activity (RAW264.7 [5]) | Activity (HL-60) | Activity (RAW264.7 [6]) | Activity (RAW264.7 [7]) | Activity (RAW264.7 [8]) | Activity (RAW264.7 [9]) | Activity (RAW264.7 [10]) | Activity (RAW264.7 [11]) [%] | inhibition (INH) (RAW264.7 [8]) [%] | Activity (RAW264.7 [12])
1 | Oc1cc(O)cc(Oc2c(O)cc(O)c3c2Oc2c(O)cc(O)c(-c4c(O)cc(O)c5c4Oc4c(O)cc(O)c(Oc6cc(O)cc(O)c6)c4O5)c2O3)c1 | 29.7 | 8.69 | 15.9 | 17.1 | Dose-dependent effect | 0.53 | 0.47 | Non-toxic | inactive | inactive | Dose-dependent effect | tde |  | Active | Active | 83.58 | 67.3 | Active
2 | Oc1cc(O)cc(O)c1 [PHLOROGLUCINOL] | 392 |  | 115 | 129 |  |  |  | Non-toxic | inactive | inactive |  |  |  |  |  |  |  | 
3 | Oc1cc(O)cc(Oc2c(O)cc(O)c3c2Oc2c(O)cc(O)cc2O3)c1 [ECKOL] | 51.8 | 22.9 | 26.5 | 28.4 |  |  |  | Non-toxic | inactive | inactive |  |  |  |  |  |  |  | 

Further compounds by falling IC50 [1], results first:

Row | IC50 [1] [µM] | IC50 [2] [µM] | IC50 [3] [µM] | IC50 [4] [µM] | Activity [13] | Activity [14] [IU] | Activity [15] [IU] | SMILES | Activity (MRC5) | Activity (RAW264.7 [5]) | Activity (HL-60) | Activity (RAW264.7 [6]) | Activity (RAW264.7 [7]) | Activity (RAW264.7 [8]) | Activity (RAW264.7 [9]) | Activity (RAW264.7 [10]) | Activity (RAW264.7 [11]) [%] | inhibition (INH) (RAW264.7 [8]) [%] | Activity (RAW264.7 [12])
4 | 39.6 | 18.6 | 21.9 | 22.7 |  |  |  | Oc1cc(O)cc(Oc2c(O)cc(O)c3c2Oc2c(O)cc(Oc4c(O)cc(O)cc4O)cc2O3)c1 | Non-toxic | inactive | inactive | Dose-dependent effect | tde | Active |  |  |  |  | 
5 | 39.2 | 17.7 | 21.6 | 21.4 |  |  |  | Oc1cc(O)cc(Oc2c(O)cc(O)c3c2Oc2c(O)cc4oc5c(Oc6cc(O)cc(O)c6)c(O)cc(O)c5c4c2O3)c1 [PHLOROFUCOFUROECKOL A] | Non-toxic | inactive | inactive | Dose-dependent effect | tde | Active |  |  |  |  | 
6 | 33.5 | 14.7 | 18.6 | 18.1 |  |  |  | Oc1cc(O)c(Oc2cc(O)cc(O)c2Oc2cc(O)cc(O)c2-c2c(O)cc(O)cc2O)c(O)c1 [FUCODIPHLOROETHOL G] | Non-toxic | inactive | inactive | Dose-dependent effect | tde |  |  | Active | 75.6 |  | Active
7 | 28.6 | 8.28 | 16.2 | 14.5 | Dose-dependent effect | 0.51 | 0.45 | Oc1cc(O)cc(Oc2c(O)cc(O)c3c2Oc2c(O)cc(Oc4c(O)cc(Oc5c(O)cc(O)c6c5Oc5c(O)cc(O)cc5O6)cc4O)cc2O3)c1 [DIECKOL] | Non-toxic | inactive | inactive | Dose-dependent effect | tde |  | Active | Active | 84.27 | 70.5 | Active
